This note sets out measurements from patent US10738041B2, “Ferroportin inhibitors” (Vifor (International) AG, priority 2015, dated 2020).

The target of assay [1] is T1, human Fpn-GFP fusion (Homo sapiens, UniProt Q9NP59).
T1 construct: expressed in transfected cells; host or cells: HEK-293 cell line #354 (derivative of HEK-293 Tet-ON Advanced, Clontech)
T1 sequence (Q9NP59 1-571): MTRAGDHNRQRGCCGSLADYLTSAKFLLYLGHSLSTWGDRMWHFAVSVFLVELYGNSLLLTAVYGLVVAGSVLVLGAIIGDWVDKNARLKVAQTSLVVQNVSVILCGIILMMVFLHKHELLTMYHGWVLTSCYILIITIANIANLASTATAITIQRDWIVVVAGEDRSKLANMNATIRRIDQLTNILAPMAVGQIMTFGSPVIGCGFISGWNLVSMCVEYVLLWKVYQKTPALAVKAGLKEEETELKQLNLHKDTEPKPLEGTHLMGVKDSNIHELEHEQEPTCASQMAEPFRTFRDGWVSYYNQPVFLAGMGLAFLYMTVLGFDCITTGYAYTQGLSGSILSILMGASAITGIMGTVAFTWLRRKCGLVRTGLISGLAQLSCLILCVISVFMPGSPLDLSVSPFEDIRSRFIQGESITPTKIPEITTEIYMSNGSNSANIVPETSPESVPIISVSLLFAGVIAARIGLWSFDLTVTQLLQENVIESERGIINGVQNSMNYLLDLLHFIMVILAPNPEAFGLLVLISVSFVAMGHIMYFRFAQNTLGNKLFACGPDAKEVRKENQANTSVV
Description: Inhibition of ferroportin mediated iron export activity in an iron response assay (BLAzer). The class given is cell-based. The note with it: average of multiple measurements; HEK-293 cell line #354; read-out: BLAzer EC50. From the text:
Intracellular iron levels are indirectly measured in this assay by monitoring the activity of a beta-lactamase (BLA) reporter gene fused to the human ferritin promoter and the associated iron regulatory element (IRE) contained within the 5′ untranslated region of the ferritin mRNA. Expression of ferroportin (Fpn) in such a cell line leads to iron efflux and lower iron levels as reflected by lower activity of the reporter gene. On the other hand, inhibition of Fpn-mediated iron efflux results in elevated cellular iron levels which is detected as increased reporter gene activity. Small molecular weight Fpn inhibitor compounds were tested for dose-dependent effects in this in vitro iron response assay as described below.
The HEK-293 cell line #354 was generated by stable integration of (i) a human Fpn-GFP fusion construct inserted in a derivative of the doxycycline-inducible pTRE-Tight-BI plasmid (Clontech, Cat. 631068) and (ii) a human ferritin promoter-BLA reporter gene into a derivative of the HEK-293 Tet-ON Advanced cell line (Clontech). […] After overnight incubation, 10 μl/well of dilution series of the test compounds were added in quadruplicates and plates were further incubated overnight at 37° C. with 5% CQ. Cells were washed 3 times with HBSS leaving 25 μl per well. BLA activity was detected by adding 5 μl/well of the GeneBlazer reagent CCF4-AM (Invitrogen, Cat. K1085) to the cells. After incubation of the plates in the dark at 18° C. for 60 min., blue and green fluorescence signals were measured in a Safre2 fluorescence plate reader (Tecan) with excitation at 410 nm and emissions at 458 nm (blue) and 522 nm (green). The ratio of blue/green fluorescence as a measure for BLA activity was calculated and EC50 values were determined with the calculated blue/green fluorescence ratios as described for the hepcidin internalization assay.

The target of assay [2] is T2, human Fpn (Homo sapiens, UniProt Q9NP59).
T2 construct: FLAG (C); made in house; host or cells: Pichia pastoris
T2 sequence (Q9NP59 1-571): T1 sequence (Q9NP59 1-571)
Description: Biophysical Ferroportin-Hepcidin Binding Assay (fluorescence polarization). The note with it: average of multiple measurements; 1 μM human Fpn, 20 nM TMR-hepcidin; read-out: FP IC50. The gist of the method:
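FP readout: a dose-dependent drop in TMR-hepcidin polarization (mP, from parallel and perpendicular emission) marked blocked binding to FLAG-tagged human Fpn purified from Pichia pastoris. Final levels were 1 μM Fpn and 20 nM TMR-hepcidin, with compound dilutions in duplicate, incubated 90 min at room temperature.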
Background: Fluorescence polarisation rises when a labelled molecule tumbles more slowly, as on binding a larger partner.

Assay [3] addresses T1, human Fpn-GFP fusion. Nature of the assay: Ferroportin Internalization and Degradation Assay (FACS). It is filed as cell-based. The note with it: average of multiple measurements, Fpn-GFP MFI, HEK-293 cell line #354, FACS; for DC50: read-out: EC50 ferroportin internalization and degradation. The protocol: Growing HEK-293 #354 cells in doxycycline containing media induced expression of human Fpn-GFP fusion protein on the cell surface. […] Small molecular weight Fpn inhibitor compounds were tested for dose-dependent effects on the Fpn-GFP mean fluorescence intensity (MFI) on HEK-293 cell line #354, as described below. HEK #354 cells were harvested from ca. 80% confluent cultures, seeded at 0.6×10^6 (cells/ml in DMEM/F12 GlutaMAX™ medium (Invitrogen, Cat. 31331-028) containing 10% FBS (Clontech, Cat. 631106), 1% Penicillin-Streptomycin (Invitrogen, Cat. 15140-122), 200 μg/ml Hygromycin B (Invitrogen, Cat. 10687-010), Blasticidin 5 μg/ml, (Invitrogen, Cat. R210-01), 4 μg/ml doxycycline (Clontech, Cat. 631311), 50 μl per well of 384 well plates (Greiner; Cat. 781091) and grown at 37° C. with 5% CQ. After overnight incubation, 10 μl/well of dilution series of the test compounds were added in quadruplicates and plates were further incubated overnight at 37° C. with 5% CO2. Cells were washed once with FACS buffer (PBS containing 1% FBS, 2 mM EDTA and 0.05% NaN3), harvested in FACS buffer with 0.5 μg/ml propidium iodide (Sigma, Cat. P4864) and analyzed in a flow cytometer (CANTO™ II, BD Biosciences) equipped with high throughput sampler. Live HEK #354 cells were gated as propidium iodide negative population and analyzed for expression of Fpn-GFP.

Consider `O=C(NCc1ccccn1)c1csc(CCNCc2nc3ccccc3[nH]2)n1` [Example 12], for which the EC50 (commonly the concentration needed to bring the measured effect to its halfway point) in assay [1] is 8270 nM. Also, the IC50 – broadly, the concentration needed to halve the response being measured – in assay [2] is 860 nM.
On to `O=C(NC1CCc2cccnc21)c1csc(CCNCc2nc3ccccc3[nH]2)n1` (centres unmarked) [Example 39], for which, in assay [1], the concentration giving a half-maximal response (EC50) is 2900 nM. Also, in assay [2], the IC50 is 1340 nM.
For `O=C(NCc1ncccc1Cl)c1csc(CCNCc2nc3ccccc3[nH]2)n1` [Example 82], the EC50 is 760 nM in assay [1] and 689 nM in assay [3]. For the same compound, the concentration for half-maximal inhibition (IC50) in assay [2] worked out at 374 nM.
Consider `Cc1cnccc1CNC(=O)c1csc(CCNCc2nc3ccccc3[nH]2)n1` [Example 90], for which, in assay [1], the half-maximal effective concentration (EC50) was found to be 4030 nM. In assay [2], the 50% inhibitory concentration (IC50) worked out at 418 nM.
For the compound `O=C(NCc1ncccc1F)c1csc(CCNCCc2nc3ccccc3[nH]2)n1` [Example 94], the EC50 in assay [1] was 530 nM; in assay [3], 220 nM. Moreover, the IC50 in assay [2] was determined as 44 nM.
The corresponding values for `O=C(NCc1ncccc1F)c1cnn(CCNCCc2nc3ccccc3[nH]2)c1` [Example 111] are 620 nM, 75 nM and 51 nM.
Regarding `O=C(NCc1ncc(F)cc1F)c1csc(CCNCCc2nc3ccccc3[nH]2)n1` [Example 116], the EC50 in assay [1] was determined as 2790 nM; in assay [3], 590 nM. Besides, the IC50 in assay [2] is 58 nM.
In the case of `O=C(NCc1ncccc1F)c1csc(CNCCc2nc3ccccc3[nH]2)n1` [Example 118], the 50% effective concentration (EC50) in assay [1] is 2690 nM; in assay [3], 4910 nM. Moreover, the IC50 in assay [2] stood at 250 nM.
Regarding `O=C(NCc1ncccc1F)c1csc(CCNCCc2nc3cc(F)ccc3[nH]2)n1` [Example 120], the values for the EC50 in assay [1] and in assay [3] were 1600 nM and 530 nM, respectively. Further, in assay [2], the IC50 came out at 71 nM.
For `O=C(NCc1cccnn1)c1csc(CCNCCc2nc3ccccc3[nH]2)n1` [Example 122], the values for the EC50 in assay [1] and in assay [3] were 4330 nM and 3020 nM, respectively. Besides, the half-maximal inhibitory concentration (IC50) in assay [2] amounted to 214 nM.
`O=C(NCc1ncccc1F)c1coc(CCNCc2nc3ccccc3[nH]2)n1` [Example 126]: the EC50 in assay [1] was 1260 nM; in assay [3], 757 nM. Moreover, the concentration for half-maximal inhibition (IC50) in assay [2] is 120 nM.
Turning to `O=C(NCc1ncccc1F)c1coc(CCNCCc2nc3ccccc3[nH]2)n1` [Example 127], the half-maximal effective concentration (EC50) stood at 420 nM in assay [1] and 81 nM in assay [3]. The IC50 in assay [2] is 23 nM.
Regarding `O=C(NCc1ncccc1F)c1csc(CCCNCc2nc3ccccc3[nH]2)n1` [Example 134], the figures for the EC50 in assay [1] and in assay [3] were 4090 nM and 5190 nM, respectively. Further, in assay [2], the IC50 came out at 970 nM.
In the case of `O=C(NCc1ccccn1)c1coc(CCNCc2nc3ccccc3[nH]2)n1` [Example 137], the EC50 in assay [1] was 5750 nM; in assay [3], 11100 nM. The IC50 in assay [2] turned out to be 1040 nM.
On to `O=C(NCc1ncccc1Cl)c1cnn(CCNCc2nc3ccccc3[nH]2)c1` [Example 138], for which the results for the concentration for a half-maximal effect (EC50) in assay [1] and in assay [3] were 1720 nM and 678 nM, respectively. The concentration for half-maximal inhibition (IC50) in assay [2] worked out at 160 nM.
As to `O=C(NCc1ncccc1Cl)c1coc(CCNCc2nc3ccccc3[nH]2)n1` [Example 141], the results for the EC50 in assay [1] and in assay [3] were 1110 nM and 290 nM, respectively. Further, in assay [2], the IC50 was 49 nM.
As to `O=C(NCc1ncccc1Cl)c1cnn(CCNCCc2nc3ccccc3[nH]2)c1` [Example 144], the EC50 in assay [1] is 470 nM; in assay [3] it was 43 nM. The concentration for half-maximal inhibition (IC50) in assay [2] turned out to be 73 nM.
The corresponding values for `O=C(NCc1ncccc1F)c1nc(CCNCc2nc3ccccc3[nH]2)sc1Cl` [Example 151] are 720 nM, 523 nM and 89 nM.
For `O=C(NCc1ncccc1F)c1csc(CCN(CCc2nc3ccccc3[nH]2)CCc2nc3ccccc3[nH]2)n1` [Example 152], the EC50 in assay [1] was determined as 170 nM; in assay [3] it was 71 nM. The 50% inhibitory concentration (IC50) in assay [2] came out at 23 nM.
With `O=C(NCc1ncccc1F)c1nc(CCNCCc2nc3ccccc3[nH]2)sc1Cl` [Example 154], the half-maximal effective concentration (EC50) in assay [1] was determined as 740 nM; in assay [3] it was 130 nM. Also, the half-maximal inhibitory concentration (IC50) in assay [2] was 30 nM.
For `O=C(NC1CCc2cccnc21)c1csc(CCNCCc2nc3ccccc3[nH]2)n1` (centres unmarked) [Example 158], the EC50 was found to be 620 nM in assay [1] and 325 nM in assay [3]. In addition, in assay [2], the 50% inhibitory concentration (IC50) turned out to be 41 nM.
For `O=C(NCc1cccnn1)c1nc(CCNCc2nc3ccccc3[nH]2)sc1Cl` [Example 161], the EC50 in assay [1] worked out at 17200 nM; in assay [3], 5300 nM. In addition, the half-maximal inhibitory concentration (IC50) in assay [2] is 260 nM.
Turning to `O=C(NCc1ncccc1F)c1ncn(CCNCc2nc3ccccc3[nH]2)n1` [Example 169], the EC50 in assay [1] came out at 8230 nM; in assay [3], 4120 nM. Moreover, the IC50 in assay [2] is 540 nM.
On to `O=C(NCc1ncccc1F)c1ncn(CCNCCc2nc3ccccc3[nH]2)n1` [Example 181], for which the 50% effective concentration (EC50) in assay [1] is 3720 nM; in assay [3], 930 nM. Besides, the IC50 in assay [2] worked out at 89 nM.
Take `O=C(NCc1ncccc1F)c1csc(CCNCC(F)(F)c2nc3ccccc3[nH]2)n1` [Example 196]: the EC50 in assay [1] came out at 12700 nM. Besides, the IC50 in assay [2] turned out to be 870 nM. Besides, the DC50 in assay [3] stood at 24800 nM.
Regarding `O=C(NCc1ncccc1F)c1coc(C2CN(CCc3nc4ccccc4[nH]3)C2)n1` [Example 208], the half-maximal effective concentration (EC50) worked out at 500 nM in assay [1] and 150 nM in assay [3]. For the same compound, the IC50 in assay [2] was 19 nM.
For `O=C(NCc1ncccc1F)c1cccc(CNCCc2nc3ccccc3[nH]2)c1` [Example 224], in assay [1], the EC50 worked out at 8200 nM. Also, the 50% inhibitory concentration (IC50) in assay [2] is 201 nM. Besides, the DC50 in assay [3] is 1830 nM.
As for `O=C(NCc1ncccc1F)c1coc(CCNCCc2nc3c(Cl)cccc3[nH]2)n1` [Example 226], the half-maximal effective concentration (EC50) is 2340 nM in assay [1] and 490 nM in assay [3]. Also, in assay [2], the IC50 stood at 26 nM.
The matching figures for `O=C(NCc1ncccc1F)c1coc(CCNCCc2nc3c(F)cccc3[nH]2)n1` [Example 228]: 2120 nM, 460 nM and 21 nM.
With `Cc1oc(CCNCCc2nc3ccccc3[nH]2)nc1C(=O)NCc1ncccc1F` [Example 230], the EC50 in assay [1] came to 6380 nM; in assay [3], 950 nM. In addition, the 50% inhibitory concentration (IC50) in assay [2] stood at 58 nM.
In the case of `O=C(NCc1ncccc1F)c1cncc(C2CN(CCc3nc4ccccc4[nH]3)C2)c1` [compound 237], the EC50 in assay [1] worked out at 2460 nM. Further, the 50% inhibitory concentration (IC50) in assay [2] is 66 nM.
